Data taken from EPA's CvTdb concentration-time database.

Columns and labels:
Test in all cases: concentration in plasma after dosing
Rat [1] = conditions: dosed: perfluorohexane-1-sulphonic acid – potassium salt, 4 mg/kg, iv, Female, F344
Rat [2] = conditions: dosed: perfluorohexane-1-sulphonic acid – potassium salt, 4 mg/kg, iv, Female, F344; remark: listed apart in the source
Rat [3] = conditions: dosed: perfluorohexane-1-sulphonic acid – potassium salt, 4 mg/kg, iv, Female, F344; remark: listed apart in the source
Rat [4] = conditions: dosed: perfluorohexane-1-sulphonic acid – potassium salt, 4 mg/kg, iv, Female, F344; remark: listed apart in the source
Rat [5] = conditions: dosed: perfluorohexane-1-sulphonic acid – potassium salt, 4 mg/kg, iv, Female, F344; remark: listed apart in the source
Rat [6] = conditions: dosed: perfluorohexane-1-sulphonic acid – potassium salt, 4 mg/kg, iv, Female, F344; remark: listed apart in the source
Rat [7] = conditions: dosed: perfluorohexane-1-sulphonic acid – potassium salt, 4 mg/kg, iv, Female, F344; remark: listed apart in the source
Rat [8] = conditions: dosed: perfluorohexane-1-sulphonic acid – potassium salt, 4 mg/kg, iv, Female, F344; remark: listed apart in the source
Rat [9] = conditions: 192 h; dosed: perfluorohexane-1-sulphonic acid – potassium salt; 4 mg/kg; iv; Female; F344
Rat [10] = conditions: dosed: perfluorohexane-1-sulphonic acid – potassium salt, 4 mg/kg, iv, Female, F344; remark: listed apart in the source
Rat [11] = conditions: dosed: perfluorohexane-1-sulphonic acid – potassium salt, 4 mg/kg, iv, Female, F344; remark: listed apart in the source
Rat [12] = conditions: dosed: perfluorohexane-1-sulphonic acid – potassium salt, 4 mg/kg, iv, Female, F344; remark: listed apart in the source
Rat [13] = conditions: dosed: perfluorohexane-1-sulphonic acid – potassium salt, 4 mg/kg, iv, Female, F344; remark: listed apart in the source
Rat [14] = conditions: dosed: perfluorohexane-1-sulphonic acid – potassium salt, 4 mg/kg, iv, Female, F344; remark: listed apart in the source
Rat [15] = conditions: dosed: perfluorohexane-1-sulphonic acid – potassium salt, 4 mg/kg, iv, Female, F344; remark: listed apart in the source
Rat [16] = conditions: dosed: perfluorohexane-1-sulphonic acid – potassium salt, 4 mg/kg, iv, Female, F344; remark: listed apart in the source
Rat [17] = conditions: iv, F344
Rat [18] = conditions: dosed: perfluorohexane-1-sulphonic acid – potassium salt, 4 mg/kg, iv, Female, F344; remark: listed apart in the source
Rat [19] = conditions: 1 h; dosed: perfluorohexane-1-sulphonic acid – potassium salt; 4 mg/kg; iv; Female; F344
Rat [20] = conditions: dosed: perfluorohexane-1-sulphonic acid – potassium salt, 4 mg/kg, iv, Female, F344; remark: listed apart in the source
Rat [21] = conditions: dosed: perfluorohexane-1-sulphonic acid – potassium salt, 4 mg/kg, iv, Female, F344; remark: listed apart in the source
Rat [22] = conditions: dosed: perfluorohexane-1-sulphonic acid – potassium salt, 4 mg/kg, iv, Female, F344; remark: listed apart in the source
Rat [23] = conditions: dosed: perfluorohexane-1-sulphonic acid – potassium salt, 4 mg/kg, iv, Female, F344; remark: listed apart in the source
Rat [24] = conditions: dosed: perfluorohexane-1-sulphonic acid – potassium salt, 4 mg/kg, iv, Female, F344; remark: listed apart in the source
Rat [25] = conditions: dosed: perfluorohexane-1-sulphonic acid – potassium salt, 4 mg/kg, iv, Female, F344; remark: listed apart in the source
Rat [26] = conditions: dosed: perfluorohexane-1-sulphonic acid – potassium salt, 4 mg/kg, iv, Female, F344; remark: listed apart in the source
Rat [27] = conditions: dosed: DL-Camphor, 6 mg/kg, iv, Male, F344
Rat [28] = conditions: dosed: DL-Camphor, 6 mg/kg, iv, Male, F344; remark: listed apart in the source
Rat [29] = conditions: dosed: DL-Camphor, 6 mg/kg, iv, Female, F344
Rat [30] = conditions: dosed: DL-Camphor, 6 mg/kg, iv, Male, F344; remark: listed apart in the source
Rat [31] = conditions: 1 h; dosed: DL-Camphor; 6 mg/kg; iv; Female; F344
Rat [32] = conditions: dosed: DL-Camphor, 6 mg/kg, iv, Male, F344; remark: listed apart in the source
Rat [33] = conditions: 1 h; dosed: DL-Camphor; 6 mg/kg; iv; Female; F344; remark: listed apart in the source
Rat [34] = conditions: dosed: DL-Camphor, 6 mg/kg, iv, Male, F344; remark: listed apart in the source
Rat [35] = conditions: 6 h; dosed: DL-Camphor; 6 mg/kg; iv; Male; F344
Rat [36] = conditions: 1.5 h; dosed: DL-Camphor; 6 mg/kg; iv; Male; F344
Rat [37] = conditions: dosed: DL-Camphor, 6 mg/kg, iv, Female, F344; remark: listed apart in the source
Rat [38] = conditions: dosed: DL-Camphor, 6 mg/kg, iv, Female, F344; remark: listed apart in the source
Rat [39] = conditions: dosed: DL-Camphor, 6 mg/kg, iv, Male, F344; remark: listed apart in the source
Rat [40] = conditions: dosed: DL-Camphor, 6 mg/kg, iv, Male, F344; remark: listed apart in the source
Rat [41] = conditions: dosed: DL-Camphor, 6 mg/kg, iv, Female, F344; remark: listed apart in the source
Rat [42] = conditions: dosed: DL-Camphor, 6 mg/kg, iv, Male, F344; remark: listed apart in the source
Rat [43] = conditions: dosed: DL-Camphor, 6 mg/kg, iv, Female, F344; remark: listed apart in the source
Rat [44] = conditions: 1.5 h; dosed: DL-Camphor; 6 mg/kg; iv; Female; F344
Rat [45] = conditions: dosed: DL-Camphor, 6 mg/kg, iv, Female, F344; remark: listed apart in the source
Rat [46] = conditions: dosed: DL-Camphor, 6 mg/kg, iv, Female, F344; remark: listed apart in the source
Rat [47] = conditions: dosed: DL-Camphor, 6 mg/kg, iv, Male, F344; remark: listed apart in the source
Rat [48] = conditions: 1.5 h; dosed: DL-Camphor; 6 mg/kg; iv; Female; F344; remark: listed apart in the source
Rat [49] = conditions: dosed: DL-Camphor, 6 mg/kg, iv, Female, F344; remark: listed apart in the source
Rat [50] = conditions: dosed: DL-Camphor, 6 mg/kg, iv, Male, F344; remark: listed apart in the source

O=S(=O)([O-])C(F)(F)C(F)(F)C(F)(F)C(F)(F)C(F)(F)C(F)(F)F.[K+] [perfluorohexane-1-sulphonic acid – potassium salt]
Conditions	concentration in plasma [ng/mL]
Rat [1], 3 h	3290
Rat [1], 96 h	566
Rat [2], 5 min	842
Rat [2], 6 h	298
Rat [3], 3 h	2550
Rat [3], 96 h	387
Rat [4], 5 min	6140
Rat [4], 6 h	2330
Rat [4], 192 h	118
Rat [5], 0.5 h	3610
Rat [5], 12 h	2480
Rat [5], 864 h	496
Rat [6], 1 h	3180
Rat [6], 48 h	842
Rat [7], 0.5 h	4200
Rat [7], 24 h	1370
Rat [8], 0.5 h	2900
Rat [8], 12 h	2090
Rat [8], 1200 h	288
Rat [10], 1 h	3150
Rat [10], 48 h	1130
Rat [11], 3 h	2380
Rat [11], 5 min	4710
Rat [11], 192 h	1450
Rat [12], 0.5 h	4140
Rat [12], 24 h	1650
Rat [13], 0.5 h	4010
Rat [13], 24 h	1450
Rat [14], 3 h	3150
Rat [14], 96 h	484
Rat [15], 0.25 h	4180
Rat [15], 6 h	2530
Rat [15], 864 h	818
Rat [16], 0.25 h	5150
Rat [16], 12 h	2040
Rat [18], 0.5 h	3970
Rat [18], 24 h	2200
Rat [18], 1200 h	494
Rat [20], 3 h	2910
Rat [20], 5 min	6770
Rat [20], 528 h	879
Rat [21], 5 min	5590
Rat [21], 6 h	2440
Rat [21], 192 h	126
Rat [22], 0.25 h	2050
Rat [22], 6 h	1440
Rat [22], 528 h	491
Rat [23], 0.25 h	4330
Rat [23], 12 h	1840
Rat [24], 1 h	3140
Rat [24], 24 h	2330
Rat [24], 1200 h	393
Rat [25], 1 h	3840
Rat [25], 48 h	1000
Rat [26], 0.25 h	4180
Rat [26], 12 h	1750

Conditions	concentration in plasma [ng/mL]
Rat [9]	1390
Rat [19]	170

Rat [17], dosed: perfluorohexane-1-sulphonic acid – potassium salt, 4 mg/kg, Female
Conditions	concentration in plasma [ng/mL]
0.25 h	3900
1 h	3190
3 h	1890
5 min	5260
6 h	2390
12 h	2230
24 h	2030
192 h	1200
528 h	519
864 h	551

CC12CCC(CC1=O)C2(C)C (racemic) [DL-Camphor]
Conditions	concentration in plasma [ng/mL]
Rat [27], 0.25 h	1710
Rat [27], 6 h	88.1
Rat [28], 2 h	205
Rat [28], 5 min	4050
Rat [29], 0.75 h	114
Rat [29], 8 h	46.7
Rat [30], 1 h	411
Rat [30], 10 h	35
Rat [32], 0.75 h	545
Rat [32], 8 h	49.1
Rat [34], 0.5 h	648
Rat [34], 4 h	127
Rat [37], 0.5 h	612
Rat [37], 4 h	61.7
Rat [38], 2 h	152
Rat [38], 5 min	2850
Rat [39], 2 h	205
Rat [39], 5 min	3700
Rat [40], 1 h	257
Rat [40], 10 h	77.4
Rat [41], 2 h	191
Rat [41], 5 min	3070
Rat [42], 0.25 h	1680
Rat [42], 1.5 h	197
Rat [43], 0.5 h	848
Rat [43], 4 h	62.7
Rat [45], 0.25 h	132
Rat [45], 6 h	70.2
Rat [46], 0.75 h	526
Rat [46], 8 h	98.3
Rat [47], 0.5 h	258
Rat [47], 4 h	135
Rat [49], 0.25 h	1520
Rat [49], 6 h	18.3
Rat [50], 0.75 h	577
Rat [50], 8 h	31.3

Conditions	concentration in plasma [ng/mL]
Rat [31]	391
Rat [33]	411
Rat [35]	87
Rat [36]	228
Rat [44]	240
Rat [48]	121

concentration in plasma [ng/mL], Rat [17], dosed: DL-Camphor, 6 mg/kg
Conditions	Female	Male
0.25 h	1250	1350
0.5 h	731	839
0.75 h	527	617
1 h	96	326
1.5 h	332	196
2 h	221	186
4 h	65.9	138
5 min	3000	4140
6 h	222	76.7
8 h	–	31
10 h	10.3	27.3
